Reference: article PMC7352922, “Norditerpenoids with Selective Anti-Cholinesterase Activity from the Roots of Perovskia atriplicifolia Benth” (International Journal of Molecular Sciences, 2020)
Values joined by “and” are separate entries in the source; they are usually repeats but may differ in a detail not shown here. Equal values may be shown once. Where a name gives a salt, the structure may show the parent alone. Read-outs that look alike come from different tables or passages of the source.

Key:
[1] = molecular target: T1, horse serum butyrylcholinesterase (Equus caballus, UniProt P81908); test: biochemical; conditions: BChE; for assumed competitive inhibition, substrate concentration = 1 mM; read-out: Ki app
T1 construct: horse serum butyrylcholinesterase (EC 3.1.1.8, Sigma, St. Louis, MO, USA); purchased Sigma, St. Louis, MO, USA; host or cells: horse serum

[2] = molecular target: T1, horse serum butyrylcholinesterase; test: biochemical; conditions: for inhibition at 10 µg/mL: read-out: % Inhibition ± S.D. at 10.0 µg·mL^−1 BChE; for IC50: read-out: BChE Inhibition IC50 (converted)
Procedure: (§1) A modified spectrophotometric method of Ellman et al. was used for the determination of inhibitory activity against AChE and BChE. Electric eel acetylcholinesterase (Type-VI-S, EC 3.1.1.7, Sigma, St. Louis, MO, USA) and horse serum butyrylcholinesterase (EC 3.1.1.8, Sigma, St. Louis, MO, USA) were used as the test enzymes and acetylthiocholine iodide and butyrylthiocholine chloride (Sigma, St. Louis, MO, USA) were employed as the respective substrates. The ChE activity was evaluated with the detection reagent 5,5′-dithio-bis(2-nitrobenzoic) acid (DTNB, Sigma, St. Louis, MO, USA). All the other reagents and conditions were the same as described in our previous publication. In brief, the following reaction mixture was added by a multichannel automatic pipette (Gilson Pipetman, Villiers Le Bel, France) in a 96-well microplate and incubated for 15 min at 25 °C: 140 µL of […] sodium phosphate buffer (pH 8.0), 20 µL of […] DTNB, 20 µL of sample solutions (0.1–10 µg/mL) and 20 µL of acetylcholinesterase/butyrylcholinesterase solution (0.2 µM). The reaction was then initiated with the addition of 10 µL of acetylthiocholine iodide or butyrylthiocholine chloride (2 mM). […] Galanthamine (Sigma, St. Louis, MO, USA)—an alkaloid isolated from snowdrop—was employed as the reference inhibitory drug.
(§2) The measurements and calculations were performed using SoftMax PRO 4.3.2.LS software (Molecular Devices, San Jose, CA, USA). […] The extent of the enzymatic reaction was calculated based on the following equation: E = (C − T)/C × 100, where E is the activity of the enzyme. E expresses the effect of the test sample or the positive control on acetylcholinesterase and butyrylcholinesterase enzyme activity expressed as the percentage of the […] in the presence of the test sample or positive control. C is the absorbance of the control solvent (blank) in the presence of an enzyme, and T is the absorbance of the tested sample (plant extract or positive control in the solvent) in the presence of an enzyme.
(§3) Statistical differences between the reference and the sample groups were evaluated by one-way ANOVA (Statistica 13PL, StatSoft, Cracow, Poland) with Dunnett’s multiple comparison post-hoc test for which p < 0.05 was considered to be significant (* p < 0.05; ** p < 0.01; *** p < 0.001, **** p < 0.0001).

[3] = molecular target: T2, Electric eel acetylcholinesterase (Electrophorus electricus, UniProt O42275); test: biochemical; conditions: for inhibition at 10 µg/mL: read-out: % Inhibition ± S.D. at 10.0 µg·mL^−1 AChE, at 10.0 µg·mL^−1; for IC50: read-out: AChE IC50
T2 construct: purchased Sigma, St. Louis, MO, USA Type-VI-S
Procedure: as §1, §2, §3

cholinesterase = conditions: cited from earlier work
[4] = tested on: several cancer cell lines; conditions: isolated from rhizomes of Salvia tebesana Bunge; cited from earlier work

T2 sequence (O42275 24-633): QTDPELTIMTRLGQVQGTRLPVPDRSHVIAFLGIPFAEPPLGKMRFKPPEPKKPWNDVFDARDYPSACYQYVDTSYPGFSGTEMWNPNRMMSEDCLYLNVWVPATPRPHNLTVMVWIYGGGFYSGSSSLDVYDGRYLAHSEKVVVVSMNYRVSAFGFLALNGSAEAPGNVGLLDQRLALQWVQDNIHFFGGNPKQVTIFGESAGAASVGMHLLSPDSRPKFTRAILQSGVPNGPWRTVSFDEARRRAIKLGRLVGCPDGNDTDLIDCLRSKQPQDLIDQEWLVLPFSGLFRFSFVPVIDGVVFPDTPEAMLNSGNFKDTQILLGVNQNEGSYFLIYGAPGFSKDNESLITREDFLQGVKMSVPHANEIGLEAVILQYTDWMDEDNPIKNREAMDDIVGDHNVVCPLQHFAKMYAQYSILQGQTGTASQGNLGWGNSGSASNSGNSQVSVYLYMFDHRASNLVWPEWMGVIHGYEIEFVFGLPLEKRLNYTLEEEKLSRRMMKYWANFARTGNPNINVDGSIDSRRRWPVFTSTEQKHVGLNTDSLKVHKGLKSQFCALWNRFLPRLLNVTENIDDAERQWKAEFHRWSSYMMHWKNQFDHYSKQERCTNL
T1 sequence (P81908 whole entry): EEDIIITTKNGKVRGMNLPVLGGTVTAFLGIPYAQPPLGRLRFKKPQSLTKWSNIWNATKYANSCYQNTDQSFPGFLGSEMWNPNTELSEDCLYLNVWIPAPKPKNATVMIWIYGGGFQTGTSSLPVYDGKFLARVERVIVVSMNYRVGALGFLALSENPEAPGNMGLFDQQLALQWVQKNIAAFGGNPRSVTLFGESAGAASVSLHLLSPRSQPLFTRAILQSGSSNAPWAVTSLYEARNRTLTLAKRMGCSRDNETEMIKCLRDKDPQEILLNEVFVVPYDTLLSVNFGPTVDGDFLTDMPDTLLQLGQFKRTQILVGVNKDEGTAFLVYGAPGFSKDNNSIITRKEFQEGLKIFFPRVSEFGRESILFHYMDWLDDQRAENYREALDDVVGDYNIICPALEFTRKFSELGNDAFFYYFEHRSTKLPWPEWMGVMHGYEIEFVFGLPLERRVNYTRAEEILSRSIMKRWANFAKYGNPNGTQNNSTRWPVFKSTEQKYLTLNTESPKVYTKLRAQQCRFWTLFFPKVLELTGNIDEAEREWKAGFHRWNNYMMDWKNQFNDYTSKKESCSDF

Molecule	Ki [1] [µM]	% Inhibition ± S.D. at 10.0 µg·mL^−1 BChE ([2]; at 10.0 µg·mL^−1) [%]	inhibition at 10 µg/mL ([2]; at 10.0 µg·mL^−1) [%]	IC50 [2]	also measured
CC(=O)O[C@@H]1CCC(C)(C)c2ccc3c(c21)C(=O)C(=O)C1=C3OC[C@@H]1C [Compound 1, (1R,15R)-1-acetoxycryptotanshinone]	1.34	95.9 ± 0.0	95.9	2.4 µM and 2.37 µM	
CC(=O)O[C@@H]1CCC(C)(C)c2ccc3c(c21)C(=O)C(=O)c1c(C)coc1-3 [Compound 2, (1R)-1-acetoxytanshinone IIA]	4.59	85.3 ± 4.3	85.3	7.9 µM and 7.86 µM	
C[C@H]1COC2=C1C(=O)C(=O)c1cc3c(cc12)C(C)(C)CCC3=O [Compound 3, (R)-3,10,10-trimethyl-2,3,9,10-tetrahydroanthra[1,2-b]furan-4,5,7(8H)-trione]	30	87.3 ± 1.0	87.3	50.8 µM	inhibition at 10 µg/mL [3]: ≤ 50%; IC50 [3]: 330 µM
Cc1cc2c(cc(O)c1=O)C1(CO)CCCC(C)(C)C1CC2 (centres unmarked) [Compound 4, isograndifoliol]	0.47		98.6	0.9 µM and 0.893 µM and 0.89 µM	BChE Inhibition IC50 [2]: below one micromole; inhibition at 10 µg/mL [3]: ≤ 50%; IC50 [3]: > 340 µM and 343 µM
COc1ccc2c3c1O[C@H]1C[C@@H](O)C=C[C@@]31CCN(C)C2 [Galanthamine hydrobromide, reference compound]					inhibition at 10 µg/mL [2]: 86.8 ± 2.9%
C[C@H]1COC2=C1C(=O)C(=O)c1c2ccc2c1CCCC2(C)C [cryptotanshinone]					cholinesterase inhibitory activity (cholinesterase): only moderate
Aegyptinone A					cytotoxic activity against several cancer cell lines [4]: moderate
